Measured values reported in the supplement of paper PMC10307832.

Experiments:
Experiment in all cases: relative viability (nuclei count vs DMSO), 5 days (fraction); higher = more cells survive
Zosuquidar + Alpelisib = compound: O[C@@H](COc1cccc2ncccc12)CN1CCN([C@@H]2c3ccccc3[C@@H]3[C@H](c4ccccc42)C3(F)F)CC1 [Zosuquidar] + Cc1nc(NC(=O)N2CCC[C@H]2C(N)=O)sc1-c1ccnc(C(C)(C)C(F)(F)F)c1 [Alpelisib] (partner 2 µM)
Outline: (§1)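 Five library-drug doses in √10 steps were combined with a fixed anchor-drug dose, or a single drug was given alone, by pin tool to lung cancer cell lines in 1536-well plates the day after seeding. Nuclei were stained and counted after 5 days. Relative viability is the nuclei count in treated wells over that in vehicle wells, taken as the median of duplicate plates.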

Kobe2602 + Pemetrexed = compound: C1=CC(=CC=C1NC(=S)NNC2=C(C=C(C=C2[N+](=O)[O-])C(F)(F)F)[N+](=O)[O-])F [Kobe2602] + Nc1nc2[nH]cc(CCc3ccc(C(=O)N[C@@H](CCC(=O)O)C(=O)O)cc3)c2c(=O)[nH]1 [Pemetrexed] (partner 0.2 µM)
Outline: as §1

[1] = compound: COc1cc2nccc(Oc3ccc(NC(=O)C4(C(=O)Nc5ccc(F)cc5)CC4)cc3)c2cc1OC [Cabozantinib] + CS(=O)(=O)N1CCN(Cc2cc3nc(-c4cccc5[nH]ncc45)nc(N4CCOCC4)c3s2)CC1 [Pictilisib] (partner 1 µM)
Outline: as §1

Cabozantinib + Foretinib = compound: COc1cc2nccc(Oc3ccc(NC(=O)C4(C(=O)Nc5ccc(F)cc5)CC4)cc3)c2cc1OC [Cabozantinib] + COc1cc2c(Oc3ccc(NC(=O)C4(C(=O)Nc5ccc(F)cc5)CC4)cc3F)ccnc2cc1OCCCN1CCOCC1 [Foretinib] (partner 0.25 µM)
Outline: as §1

Row | Cell Line | relative viability (Zosuquidar + Alpelisib; first compound 0.01 µM) | relative viability (Zosuquidar + Alpelisib; first compound 0.03162 µM) | relative viability (Zosuquidar + Alpelisib; first compound 0.1 µM) | relative viability (Zosuquidar + Alpelisib; first compound 0.3162 µM) | relative viability (Zosuquidar + Alpelisib; first compound 1 µM) | relative viability (Kobe2602 + Pemetrexed; first compound 0.2 µM) | relative viability (Kobe2602 + Pemetrexed; first compound 0.6325 µM) | relative viability (Kobe2602 + Pemetrexed; first compound 2 µM) | relative viability (Kobe2602 + Pemetrexed; first compound 6.325 µM) | relative viability (Kobe2602 + Pemetrexed; first compound 20 µM) | relative viability ([1]; first compound 0.02 µM) | relative viability ([1]; first compound 0.06325 µM) | relative viability ([1]; first compound 0.2 µM) | relative viability ([1]; first compound 0.6325 µM) | relative viability ([1]; first compound 2 µM) | relative viability (Cabozantinib + Foretinib; first compound 0.06325 µM) | relative viability (Cabozantinib + Foretinib; first compound 0.2 µM) | relative viability (Cabozantinib + Foretinib; first compound 0.6325 µM) | relative viability (Cabozantinib + Foretinib; first compound 2 µM) | relative viability (Cabozantinib + Foretinib; first compound 0.02 µM)
1 | HCC-44 | 0.753 | 0.817 | 0.842 | 0.885 | 0.755 | 0.595 | 0.684 | 0.653 | 0.671 | 0.609 | 0.487 | 0.581 | 0.6 | 0.571 | 0.662 | – | – | – | – | –
2 | HCC-78 | 0.343 | 0.313 | – | 0.325 | 0.379 | 0.891 | 0.923 | 0.699 | 0.868 | 0.844 | 0.178 | 0.228 | 0.174 | 0.177 | 0.192 | 0.684 | 0.549 | 0.541 | 0.518 | –
3 | HCC-366 | 0.519 | 0.449 | 0.337 | 0.438 | 0.401 | 0.157 | 0.179 | 0.16 | 0.146 | 0.328 | 0.0953 | 0.105 | 0.158 | 0.0782 | 0.113 | 0.948 | 0.95 | 0.905 | 0.888 | 0.941
4 | HCC-827 | 0.935 | 1.01 | 0.759 | 1.07 | 0.96 | 0.293 | 0.241 | 0.281 | 0.261 | 0.261 | 1.08 | 0.991 | – | 0.907 | 0.816 | 1.05 | – | 1.1 | 0.988 | 1.05
5 | HOP-62 | 1.05 | 0.79 | 0.907 | 1.08 | 0.988 | 0.43 | 0.336 | 0.312 | 0.323 | 0.316 | 0.959 | 0.707 | 1.08 | 0.57 | 0.683 | 1.19 | 1.06 | 1 | 1.24 | 1.17
6 | IA-LM | 0.818 | 0.908 | 0.714 | 0.909 | 0.773 | – | – | – | – | – | 0.471 | 0.381 | 0.356 | 0.39 | 0.412 | 1.15 | 1.22 | 1.23 | 1.24 | 1.15
7 | LC-2-ad | 0.892 | 0.938 | 0.817 | 0.886 | 0.928 | 0.292 | 0.296 | 0.285 | 0.275 | 0.264 | 0.31 | 0.402 | 0.279 | 0.319 | 0.177 | 1.03 | 0.889 | 1.02 | 0.89 | –
8 | LCLC-97TM1 | 0.187 | 0.237 | – | 0.224 | 0.234 | 0.204 | 0.15 | – | 0.14 | 0.161 | – | 0.2 | 0.152 | 0.296 | 0.32 | 1.1 | 0.993 | 1.04 | 0.879 | 0.938
9 | LCLC-103H | 1.02 | 1.12 | 1.01 | 1.02 | 0.926 | 0.494 | 0.502 | 0.454 | 0.438 | 0.449 | 0.524 | 0.622 | 0.58 | 0.606 | 0.528 | 0.695 | 0.778 | 0.745 | 0.756 | 0.909
10 | LK-2 | 1.29 | 1.26 | 0.939 | 1.08 | 1.02 | 0.259 | 0.188 | 0.279 | 0.248 | 0.328 | – | 0.632 | 0.565 | 0.625 | 0.588 | 1.27 | – | 1.52 | 0.863 | –
11 | LOU-NH91 | 0.702 | 0.717 | 0.6 | 0.718 | 0.725 | 0.351 | 0.361 | 0.379 | 0.391 | 0.392 | 0.494 | 0.541 | 0.476 | 0.485 | 0.513 | 0.997 | – | 0.966 | 0.992 | 0.89
12 | NCI-H522 | – | – | – | – | – | 1.06 | 1.19 | 0.974 | 1.15 | 1.01 | – | – | – | – | – | – | – | – | – | –
13 | NCI-H727 | 0.669 | 0.631 | 0.536 | 0.588 | 0.577 | – | – | – | – | – | 0.228 | 0.493 | 0.302 | 0.357 | 0.36 | 1.06 | 1.08 | 0.818 | 0.889 | 0.675
14 | NCI-H1299 | 1.07 | 0.998 | 1.05 | 0.995 | 1.05 | – | – | – | – | – | 0.961 | 0.924 | 0.953 | 0.876 | 0.733 | 1.12 | 1.16 | 1.11 | 1.13 | 1.12
15 | NCI-H1623 | – | – | – | – | – | – | – | – | – | – | – | – | – | – | – | 1.05 | 0.695 | 0.828 | 0.874 | 0.783
16 | NCI-H1648 | – | – | – | – | – | 0.759 | 0.684 | 0.519 | 0.693 | 0.809 | – | – | – | – | – | – | – | – | – | –
17 | NCI-H1650 | – | – | – | – | – | 0.394 | 0.355 | 0.363 | 0.335 | 0.374 | 0.515 | 0.709 | 0.606 | 0.536 | 0.532 | 1.48 | 1.02 | 1.27 | 0.978 | 1.31
18 | NCI-H1703 | 0.355 | 0.325 | 0.237 | 0.438 | 0.345 | – | – | – | – | – | 0.214 | 0.229 | 0.249 | 0.226 | 0.18 | 0.399 | 0.356 | 0.427 | 0.37 | 0.305
19 | NCI-H1792 | 0.66 | 0.813 | 0.53 | 0.705 | 0.799 | 0.679 | 0.964 | 0.714 | 0.887 | 0.814 | 0.334 | 0.318 | 0.301 | 0.293 | 0.268 | – | – | – | – | –
20 | NCI-H2342 | – | – | – | – | – | 0.734 | 0.754 | 0.734 | 0.763 | 0.844 | – | – | – | – | – | 1.16 | 1.08 | 1.06 | 0.799 | 1.09
21 | SW 900 | – | – | – | – | – | 0.472 | 0.489 | 0.479 | 0.487 | 0.493 | – | – | – | – | – | 0.952 | 0.837 | 0.695 | 0.968 | 0.848
